In patent US20230142274A1 (SIMCERE PHARMACEUTICAL CO., LTD., priority 2020, published 2023):
pIC50: −log10 of the molar value. Read-outs that look alike come from different tables or passages of the source.

What was measured:
Daudi cells = test: Inhibition of human Daudi lymphoma cell proliferation (Cell-Titer Glo); type: cell-based; conditions: 3 days incubation, read-out: Anti-Proliferative Activity Against Daudi cells IC50
In short: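 Daudi cells in RPMI 1640 with 10% FBS were seeded and grown 24 h, then exposed for 3 days (37 °C, 5% CO2) to 10-point 3-fold serial dilutions at 0.25% final DMSO. Viability was read by CellTiter-Glo ATP luminescence, and IC50 was fitted from % inhibition against top/bottom controls.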

WI-38 cells = test: Inhibition of human WI-38 embryonic lung cell proliferation (Cell-Titer Glo); type: cell-based; conditions: 3 days incubation, read-out: Anti-Proliferative Activity Against WI-38 cells IC50
Procedure: Introduction of the experimental principle: After the RAD51 inhibitor to be tested was co-incubated with human embryonic lung cells for a period of time, the influence of the test compound on cell proliferation was measured by a method for counting cell proliferation based on the quantitative measurement of intracellular ATP content.
Materials and Cells: WI-38 cells were purchased from ATCC; fetal bovine serum, 1640 medium and penicillin-streptomycin were purchased from Gibco Inc. (U.S.), 96-well plates were purchased from Corning Inc. (U.S.), and Cell-Titer Glo reagent was purchased from Promega Corporation (U.S.).
Cell culture: WI-38 cells were cultured in an EMEM culture medium containing 10% fetal bovine serum and 1% penicillin-streptomycin at 37° C. in an atmosphere containing 5% CO2. Cells in logarithmic growth phase could be used for experiments.
Assay of cell proliferation and viability: Cell-Titer Glo reagent was used to measure the inhibitory activities of the compounds on the proliferation of WI-38 cell strain. The concentration of cells was adjusted, and the cells were seeded in a 96-well plate and cultured at 37° C. in an atmosphere containing 5% CO2 for 24 hours. The powder of the compound was dissolved in 100% DMSO to form a 10 mM solution. 10 μl of the solution of the compound was aspirated and transferred into a 96-well compound plate containing 20 μl of DMSO solution in each well for 3-fold dilution and was then formulated to 10 serial dilutions. Thereafter, 2 μl of the solution of the compound was aspirated from the corresponding well and added correspondingly into a 96-well intermediate compound dilution plate containing 78 μl of complete culture medium in each well. The resultant was mixed well, and the plate was centrifuged at 1000 rpm for 1 minute. Finally, 10 μl of the solution of the compound was aspirated from the corresponding well of the 96-well intermediate compound dilution plate, and transferred into the corresponding well of the cell culture plate containing 90 μl of complete culture medium. The final concentration of DMSO was 0.25%. After the addition of the compound, the cells were continued to be incubated for 3 days at 37° C. in an atmosphere containing 5% CO2. Cell-Titer Glo reagent was added to measure cell viability.
% Compound inhibition was calculated and IC50 of the compound was fitted;
% Compound inhibition=1−100%×(Signal−Bottom)/(Top−Bottom)

pIC50 (Daudi cells; Homo sapiens, 72 h) | pIC50 (Daudi cells) | Structure (SMILES) | pIC50 (WI-38 cells; Homo sapiens, 72 h) | pIC50 (WI-38 cells)
7.85 | – | Cc1cc(Nc2ccc(-c3cnc([C@H]4CC[C@H](NC(=O)OC(C)C)CC4)s3)c(S(=O)(=O)C3CN(C)C3)c2)n[nH]1 [Example 114, isopropyl trans-(4-(5-(4-((5-methyl-1H-pyrazol-3-yl)amino)-2-((1-methylazetidin-3-yl)sulfonyl)phenyl)thiazol-2-yl)cyclohexyl)carbamate] | < 4.60 | –
8.00 | – | CC(C)OC(=O)N[C@H]1CC[C@H](c2ncc(-c3ccc(Nc4cc(C5CC5)[nH]n4)cc3S(=O)(=O)C3CC3)s2)CC1 [Example 62, isopropyl trans-N-[4-[5-[4-[(5-cyclopropyl-1H-pyrazol-3-yl)amino]-2-cyclopropylsulfonyl-phenyl]thiazol-2-yl]cyclohexyl]carbamate] | < 4.60 | –
7.11 | – | Cc1cc(Nc2ccc(-c3cnc([C@H]4CC[C@H](NC(=O)OC(C)C)CC4)s3)c(S(=O)(=O)C(C)C)c2)nn1C [Example 36, isopropyl trans-(4-(5-(4-((1,5-dimethyl-1H-pyrazol-3-yl)amino)-2-(isopropylsulfonyl)phenyl)thiazol-2-yl)cyclohexyl)carbamate] | 4.61 | –
8.15 | – | Cc1cc(Nc2ccc(-c3cnc([C@H]4CC[C@H](NC(=O)OC(C)C)CC4)s3)c(S(=O)(=O)C3COC3)c2)n(C)n1 [Example 117, isopropyl trans-(4-(5-(4-((1,3-dimethyl-1H-pyrazol-5-yl)amino)-2-(oxetan-3-ylsulfonyl)phenyl)thiazol-2-yl)cyclohexyl)carbamate] | 4.70 | –
7.52 | – | CC(C)OC(=O)N[C@H]1CC[C@H](c2ncc(-c3ccc(Nc4cnn(C)c4)cc3S(=N)(=O)C3CC3)s2)CC1 (stereo partly drawn) [Example 69, isopropyl trans-(4-(5-(2-(cyclopropanesulfonimidoyl)-4-((1-methyl-1H-pyrazol-4-yl)amino)phenyl]thiazol-2-yl)cyclohexyl)carbamate] | < 4.60 | –
8.40 | – | Cc1cc(Nc2ccc(-c3cnc([C@H]4CC[C@H](NC(=O)OC(C)C)CC4)s3)c(S(=O)(=O)C3CCC3)c2)n[nH]1 [Example 88, isopropyl trans-(4-(5-(2-(cyclobutylsulfonyl)-4-((5-methyl-1H-pyrazol-3-yl)amino)phenyl)thiazol-2-yl)cyclohexyl)carbamate] | < 4.60 | –
7.21 | – | CC(C)OC(=O)N[C@H]1CC[C@H](c2ncc(-c3ccc(Nc4cc(C5CC5)[nH]n4)cc3S(=O)(=O)C(C)C)s2)CC1 [Example 45, isopropyl trans-N-[4-[5-[4-[(5-cyclopropyl-1H-pyrazol-3-yl)amino]-2-isopropylsulfonyl-phenyl]thiazol-2-yl]cyclohexyl]carbamate] | < 4.60 | –

The remaining lines, values behind:

Structure (SMILES) | pIC50 (Daudi cells; Homo sapiens, 72 h) | pIC50 (Daudi cells) | pIC50 (WI-38 cells; Homo sapiens, 72 h) | pIC50 (WI-38 cells)
CC(C)OC(=O)Nc1ccc(-c2nnc([C@H]3CC[C@H](NC(=O)OC(C)C)CC3)s2)c(S(=O)(=O)C(C)C)c1 [Example 25, isopropyl trans-N-[4-[5-[4-(isopropoxycarbonylamino)cyclohexyl]-1,3,4-thiadiazol-2-yl]-3-isopropylsulfonyl-phenyl]carbamate] | 6.13 | – | < 4.60 | –
CC(C)OC(=O)N[C@H]1CC[C@H](c2ncc(-c3ccc(NC(=O)OCC4CC4)cc3S(=O)(=O)NC(C)(C)C)s2)CC1 [Example 16, isopropyl trans-N-[4-[5-[2-(tert-butylsulfamoyl)-4-(cyclopropylmethoxycarbonylamino)phenyl]thiazol-2-yl]cyclohexyl]carbamate] | 6.31 | – | < 4.60 | –
CC(C)OC(=O)N[C@H]1CC[C@H](c2ncc(-c3ccc(Nc4cn(C)nn4)cc3P3(=O)CCCC3)s2)CC1 [Example 53, isopropyl trans-N-[4-[5-[4-[(1-methyltriazol-4-yl)amino]-2-(1-oxidophospholan-1-yl)phenyl]thiazol-2-yl]cyclohexyl]carbamate] | 7.00 | – | < 4.60 | –
CC(C)OC(=O)Nc1ccc(-c2cnc(N3CC4C(C3)C4NC(=O)OC(C)C)s2)c(S(=O)(=O)NC(C)(C)C)c1 (stereo not drawn) [Example 9, isopropyl endo-N-[3-(tert-butylsulfamoyl)-4-[2-[6-(isopropoxycarbonylamino)-3-azabicyclo[3.1.0]hex-3-yl]thiazol-5-yl]phenyl]carbamate] | – | 5.69 | – | < 4.60
CC(C)OC(=O)N[C@H]1CC[C@H](c2ncc(-c3ccc(NC(=O)NC4(c5ccccc5)CC4)cc3S(=O)(=O)NC(C)(C)C)s2)CC1 [Example 17, isopropyl trans-N-[4-[5-[2-(tert-butylsulfamoyl)-4-[(1-phenylcyclopropyl)carbamoylamino]phenyl]thiazol-2-yl]cyclohexyl]carbamate] | 6.96 | – | < 4.60 | –
CC(C)OC(=O)Nc1ccc(-c2cnc(C34CC(NC(=O)OC(C)C)(C3)C4)s2)c(S(=O)(=O)NC(C)(C)C)c1 [Example 7, isopropyl (3-(5-(4-(isopropoxycarbonyl)amino-2-(N-(tert-butyl)sulfamoyl)phenyl)thiazol-2-yl)bicyclo[1.1.1]pent-1-yl)carbamate] | 5.59 | – | < 4.60 | –
CC(C)OC(=O)N[C@H]1CC[C@H](c2ncc(-c3ccc(Nc4cnn(CCF)c4)cc3S(=N)(=O)C3CCC3)s2)CC1 (stereo partly shown) [Example 102] | 7.77 | – | < 4.60 | –
CC(C)OC(=O)N[C@H]1CC[C@H](c2ncc(-c3ccc(NC(=O)NCc4ccccc4)cc3P(C)(C)=O)s2)CC1 [Example 26, isopropyl trans-(4-(5-(4-(3-benzylureido)-2-(dimethylphosphoryl)phenyl)thiazol-2-yl)cyclohexyl)carbamate] | 6.89 | – | < 4.60 | –
CC(C)OC(=O)NC1CCC(c2ncc(-c3ccc(NC(=O)C4Cc5ccccc5CN4)cc3S(=O)(=O)NC(C)(C)C)s2)CC1 (stereo not drawn) [Example 13, isopropyl trans-N-[4-[5-[2-(tert-butylsulfamoyl)-4-(1,2,3,4-tetrahydroisoquinoline-3-carbonylamino)phenyl]thiazol-2-yl]cyclohexyl]carbamate] | 6.39 | – | < 4.60 | –
CC(C)OC(=O)Nc1ccc(-c2cnc([C@H]3CC[C@H](NC(=O)OC(C)C)CC3)s2)c(S(=O)(=O)C(C)(C)C)c1 [Example 34, isopropyl trans-N-[3-tert-butylsulfonyl-4-[2-[4-(isopropoxycarbonylamino)cyclohexyl]thiazol-5-yl]phenyl]carbamate] | 6.15 | – | < 4.60 | –
